The text below walks through data of patent publication US20120259413A1, “DEVICES, COMPOSITIONS AND METHODS UTILIZING EP4 AND EP2 RECEPTOR AGONISTS FOR PREVENTING, REDUCING OR TREATING CAPSULAR CONTRACTURE” (ALLERGAN, INC., priority 2011, published 2012).

In series [1] the test system is cultured human skin fibroblasts. The series is described as follows: TGF-β1-induced myofibroblast formation (α-SMA Western blot). It is filed as cell-based. The settings on record: 10 or 100 nM with TGF-β1 2 ng/ml, 72 hours. The procedure: EP4 and EP2 Receptor Agonists Inhibit TGF-β1-Induced Myofibroblasts Formation
Adult skin fibroblasts were derived from normal skin of a person, purchased from ATCC(CRL-7346). Cells were cultured in DMEM medium supplemented with 10% fetal bovine serum and 1% streptomycin and penicillin in incubators at 37° C. and 5% CO2. Cells were seeded in 10 cm dishes at 1×10^6 cells/dish. When the cells became 80% confluent, they were cultured in serum-free medium for 48 hrs after washing away residual serum with PBS. Vehicle, Compound I (EP4 receptor agonist), or Compound II (EP2 receptor agonist), together with human recombinant TGF-β1 (2 ng/ml), were added to culture medium at 0, 10 or 100 nM final concentration, respectively. Compound I or 2 was first dissolved in DMSO, the final DMSO concentration was 0.1%. Cell lysates were collected at 72 hours after treatments, respectively. Proteins were quantified and resolved on 4-10% SDS-PAGE. Then the proteins were transferred to membrane by electrophoresis. The membranes were blocked with mouse-anti-alpha smooth muscle actin (α-SMA) antibody, and a second antibody against mouse-IgG conjugated with AP (purchased from Signal Transduction). Shown in FIG. 1A is a representative image of Western Blot myofibroblast marker expression under the treatment of EP4 or EP2 receptor agonists in combination with TGF-β1 in cultured human skin fibroblasts.
For orientation: Immunoblotting shows a protein as a band on a membrane.

The target of series [2] is T1, hEP2 (Homo sapiens, UniProt P43116).
T1 construct: expressed in transfected cells
T1 sequence (P43116 whole entry): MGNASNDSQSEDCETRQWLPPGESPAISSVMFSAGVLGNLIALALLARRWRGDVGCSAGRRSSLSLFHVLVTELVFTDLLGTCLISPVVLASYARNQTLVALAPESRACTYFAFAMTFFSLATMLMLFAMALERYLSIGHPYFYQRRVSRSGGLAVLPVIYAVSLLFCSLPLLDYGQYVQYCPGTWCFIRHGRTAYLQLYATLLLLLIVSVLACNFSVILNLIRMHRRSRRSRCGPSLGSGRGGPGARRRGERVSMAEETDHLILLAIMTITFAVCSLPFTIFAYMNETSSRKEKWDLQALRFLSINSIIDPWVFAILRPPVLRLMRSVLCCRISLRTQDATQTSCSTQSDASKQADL
The series can be described thus: Radioligand binding assay ([3H]PGE2 competition), EP2 receptor. On the procedure: (§1) General Protocol for Radioligand Binding Assays and cAMP assays:
(§2) Radioligand binding studies on plasma membrane fractions prepared from cells** are performed as follows. Cells washed with TME buffer are scraped from the bottom of the flasks and homogenized for 30 sec using a Brinkman PT 10/35 polytron. TME buffer is added as necessary to achieve a 40 ml volume in the centrifuge tubes. TME is comprised of 50 mM TRIS base, 10 mM MgCl2, 1 mM EDTA; pH 7.4 is achieved by adding 1 N HCl. The cell homogenate is centrifuged at 19,000 rpm for 20-25 min at 4° C. using a Beckman Ti-60 or Tt-70 rotor. The pellet is then re-suspended in TME buffer to provide a final protein concentration of 1 mg/ml, as determined by Bio-Rad assay. Radioligand binding assays are performed in a 100 μl or 200 μl volume.
(§3) The binding of [^3H] PGE2 (specific activity 165 Ci/mmol) is determined in duplicate and in at least 3 separate experiments. […] PGE2 and non-specific binding is determined with 10^−5 M unlabelled PGE2. […]
(§4) Plasmids encoding the human EP1, EP2, EP3, EP4, FP, TP, IP and DP receptors are prepared by cloning the respective coding sequences into the eukaryotic expression vector pCEP4 (Invitrogen). […] Selection of stable transfectants is achieved with 200 μg ml^−1 hygromycin, the optimal concentration being determined by previous hygromycin kill curve studies. […]

In series [3] the target is T2, human recombinant EP2 receptor (HEK-293 cells) (Homo sapiens, UniProt P43116).
T2 construct: expressed in transfected cells
T2 sequence (P43116 whole entry): as above
The series can be described thus: AlphaScreen cAMP assay, EP2 receptor. Type of series: cell-based. To be noted: read-out: cAMP enhancement EC50. The procedure: (§5) cAMP assay was carried out using AlphaScreen cAMP assay kits (PerkinElmer, Boston, Mass.) following manufacturer instructions. Intracellular Ca^2+ was monitored using a FLIPR Tetra system and assay kits from Molecular Devices following manufacturer instructions. All assays were carried out in HEK-293 cells heterologously and stably expressing each of the eight human recombinant prostanoid receptors. For Ca^2+ signals, hEP2, hEP4, hDP were co-expressed with a chimeric G protein, Gqs, which converts Gs signal to Gq Ca^2+ signal, and hEP3 with a chimeric G protein, Gqi. Each receptor-selective agonist induced Ca^2+ signals with sub-nanomolar or nanomolar EC50 values. Subtype-selective compounds used here are PGE2 for EP1, EP2, EP3 and EP4; BW245C for DP; 17-phenyl PGF2α for FP, carbacyclin for IP and U-46619 for TP.
(§6) Human Recombinant EP1, EP2, EP3, EP4, FP, TP, IP and DP Receptors: Stable Transfectants
as §4

In series [4] the target is T1, hEP2. The series can be described thus: FLIPR Ca2+ signal assay, hEP2 co-expressed with Gqs. It is filed as cell-based. The settings on record: EP2 receptor. The procedure: as §5, §6, §4
For series [5], the target named is T3, human recombinant EP4 receptor (Homo sapiens, UniProt P35408).
T3 construct: expressed in transfected cells
T3 sequence (P35408 whole entry): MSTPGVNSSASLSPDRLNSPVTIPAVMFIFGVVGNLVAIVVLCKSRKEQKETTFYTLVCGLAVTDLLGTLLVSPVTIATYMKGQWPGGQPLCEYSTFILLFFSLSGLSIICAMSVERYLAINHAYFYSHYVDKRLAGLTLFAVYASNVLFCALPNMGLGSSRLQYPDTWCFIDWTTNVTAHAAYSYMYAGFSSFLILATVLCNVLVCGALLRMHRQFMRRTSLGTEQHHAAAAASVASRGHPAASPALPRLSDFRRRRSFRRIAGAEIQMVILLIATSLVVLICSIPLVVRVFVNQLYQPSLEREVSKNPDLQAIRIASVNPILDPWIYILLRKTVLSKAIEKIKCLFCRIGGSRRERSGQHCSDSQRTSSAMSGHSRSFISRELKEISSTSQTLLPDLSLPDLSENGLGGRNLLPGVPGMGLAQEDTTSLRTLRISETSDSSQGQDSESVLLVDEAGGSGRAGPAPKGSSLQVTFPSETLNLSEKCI
The series can be described thus: Radioligand binding assay ([3H]PGE2 competition), EP4 receptor. The procedure:
as §1, §2, §3, §4

Series [6] has as its target T4, human recombinant EP4 receptor (HEK-293 cells) (Homo sapiens, UniProt P35408).
T4 construct: expressed in transfected cells
The series is described as follows: AlphaScreen cAMP assay, EP4 receptor. It is filed as cell-based. To be noted: read-out: EC50 for increased cAMP production. The procedure: as §5, §6, §4

A further series concerns the target T5, hEP4/Gqs (Homo sapiens, UniProt P35408).
T5 construct: expressed in transfected cells
The series is described as follows: FLIPR Ca2+ signal assay, hEP4/Gqs. It is filed as cell-based. The procedure:
as §5, §6, §4

The next series has as its system VEGF. The series can be described thus: VEGF expression at wound sites (Western blot). The settings on record: wound tissue, transiently at day-7. It is filed as in vivo, Sprague Dawley rats. The procedure:
(§7) 2 cm long incisional full thickness skin wounds were made on the back of Sprague Dawley rats. Wounds were treated with vehicle or EP4 agonist (compound I). The wound tissue was biopsied at day-7 or day-14 post-surgery. The samples were homogenized in protein extraction buffer after being frozen in liquid nitrogen. The protein concentrations were measured. Then the samples were loaded into 4-10% SDS-Pages to resolve the proteins. After electrophoresis, the proteins were transferred onto nitrocellular membranes. The membranes were blocked with anti-VEGF, anti-bFGF or anti-beta-actin, respectively. […] It is reported that bFGF prevents scar formation and reduces hypertrophic and burn-induced skin scars. VEGF expression was boosted by 25% transiently at day-7, which may contribute to angiogenesis at wound site and facilitate scar-free healing.

The subject of series [7] is incisional skin wounds. The series is described as follows: Incisional skin wound study comparing Compound I and TGF-β3. Type of series: in vivo, rats. To be noted: for number of neutrophils counted in three sections: 3 days post-surgery, H&E, n=5, vehicle 60.6±30; for macroscopic surface appearance of wound sites / abnormal regions of dense, red, fine parallel fibers in wound gaps: 70 days post-surgery; for abnormal regions of dense, red, fine parallel fibers in wound gaps: Picrosirius red; for widths of the abnormal structured dermis regions versus vehicle: day 14, Masson trichrome; for gap width in-between the normal fibrils versus vehicle / collagen fibrils at wound sites under polarized light: day 14, Picrosirius red; for gap width in-between the normal fibrils versus vehicle: p<0.05; for collagen fibrils at wound sites under polarized light: yellow type I, green type III collagen. The procedure: A similar skin wound study was also performed comparing the effects of Compound I and TGF-β3. In this study, intradermal injections of Compound I at 0.004%, TGF-β3 at 100 ng/200 μl or vehicle were given right before closing the wounds. Afterward, TGF-β3 was injected two more times, on day 1 and 2, and Compound I and vehicle were topically applied twice a day for the duration of the study. The vehicle was PBS with 0.1% BSA and 4 mM HCl in a total volume of 200 μl for injection. Skin wounds were imaged on day 3, 7, 14, 35 and 70.
(§8) The wound tissue was biopsied for histopathology on day 3, 14 and 70. To observe the skin wound, paraffin-embedded wound sections were made. Regular H&E staining was carried out in comparison with Masson trichrome and/or Picosirus red to visualize the collagen fibers. To monitor myofibroblasts in skin wound, the sections were immunohistochemically stained to identify alpha-smooth muscle actin. To assess wound appearance, all the scar photos were mixed together by the end of each study. The scar severity was scored on a scale of 0 to 10, with 0 being invisible, 1 the minimal and 10 the worst. Each scar was divided into 4 regions, separated by suture sites; each quarter was scored independently; the mean of the 4 part scores was recorded as the gross score of each wound.

Another series relates to bFGF. The series can be described thus: bFGF expression at wound sites (Western blot). The settings on record: wound tissue, day-7 and day-14. It is filed as in vivo, Sprague Dawley rats. On the procedure:
as §7

Series [8] relates to incisional skin wounds. The series is described as follows: Incisional skin wound study, 14 day pilot, topical treatment. It is filed as in vivo, Sprague-Dawley rats. On the procedure: Sprague-Dawley rats weighing 180-200 grams were anesthetized with isoflourane. After shaving, a 2-cm long incision was made, reaching the deep fascia on the back skin of rats under sterile conditions. The wounds were immediately closed with 4-0 sutures. A 14 day pilot study was carried out. The animals were topically treated with vehicle or Compound 1 at 0.004% twice daily. The vehicle contained ethanol 30%, propylene glycol 12%, dipropylene glycol 5%, benzyl alcohol 5%, glycerol 3% and normal saline 45%. The wound was photographed daily; biopsy was performed at 2, 3, 7 and 14 days post-surgery for histopathology and molecular biology analysis.
as §8

The mark [9] stands for this setting: 14 days post-surgery, Masson Trichrome.

T4 sequence (P35408 whole entry): as above
T5 sequence (P35408 whole entry): as above

`CCCCC[C@H](O)c1ccc(N2C(=O)CC[C@@H]2CCCc2ccc(C(=O)O)s2)cc1` [Compound II]: in series [1], the “TGF-β1-up-regulated expression of α-SMA” value is given as “dramatically ameliorated”. In addition, the Ki (usually a measure of affinity in units of concentration, obtained from inhibition or displacement) at hEP2 [2] was found to be 21 nM. Also, the EC50 (as a rule, the concentration that produces a half-maximal response) is 0.19 nM in series [3] and 6.7 nM at hEP2 [4].
For `CC1(C)C(=O)[C@H](C/C=C\CCCC(=O)O)[C@@H](/C=C/[C@H](O)CCc2sc3ccccc3c2Cl)[C@@H]1O` [Compound I], in [5], the Ki is 6.7 ± 0.7 nM. Further, the EC50 in series [6] was 0.25 ± 0.03 nM. The compound also returned a 50% effective concentration (EC50) at hEP4/Gqs of 0.11 ± 0.05 nM. The “TGF-β1-up-regulated expression of α-SMA” value in series [1] was “dramatically ameliorated”. Also, the “boost of VEGF expression” value with VEGF was found to be 25%. Further, in the series on incisional skin wounds [7], the “number of neutrophils counted in three sections” value is recorded as 31.4±8; the “macroscopic surface appearance of wound sites” value was “wound sites were not even detectable”; the “abnormal regions of dense, red, fine parallel fibers in wound gaps” value is reported as “largely absent”; the “gap width in-between the normal fibrils versus vehicle” value was “significantly narrower”. Besides, the “collagen fibrils at wound sites under polarized light” value in the series with incisional skin wounds [7] was “large yellow-stained collagen bundles almost crossing over the entire wound sites”. The “widths of the abnormal structured dermis regions versus vehicle” value in the series on incisional skin wounds [7] (p<0.01-0.05) is on record as “significantly smaller”. Moreover, the “size of residual scar regions versus vehicle” value with incisional skin wounds [7] (day 70, Masson trichrome) is “remarkably smaller”. Besides, the “effect on residual scar size compared with TGF-β3” value with incisional skin wounds [7] (day 70, Masson trichrome, p<0.01-0.05) is on record as “more noticeable than TGF-β3”. The “enhancement of bFGF expression” value in the series with bFGF was “up to 60%”. Moreover, in the series on incisional skin wounds [8] (7 days post-skin incision), the “epidermal thickness of vehicle-treated skin relative to Compound I treated epidermis” value turned out to be 3 times and the “thickness of epidermal layer of treated skin” value is recorded as “close to the nearby normal epidermis”. The “gross skin scar appearance versus vehicle-treated animals” value in the series with incisional skin wounds [8] (14 days post-surgery) was “smaller and softer skin scar”. Moreover, in the series on incisional skin wounds [8] (setting [9]), the “scar width at the superficial region” value was “only a tendency to decrease”; the “scar width in the middle and bottom parts of scars” value is given as “significantly reduced”. For the same compound, in the series on incisional skin wounds [8] (day 3), the “overall size of epidermal defects, vehicle-treated wounds compared with Compound I treated wounds” value is listed as “two times larger”. Besides, the “skin wound samples with closed epidermis filled with keratinocytes” value in the series on incisional skin wounds [8] (day 3, 0.004% topical twice daily) was 80%. Also, in the series on incisional skin wounds [8] (day 3 samples, vehicle control 38±6.15), the “number of myofibroblasts (α-SMA-positive cells)” value is given as 25.8±7.45 /3 sections. The “polymorphonuclear cell infiltration at wound sites” value with incisional skin wounds [8] (days 2 and 3) is on record as “significantly reduced”.
As to “TGF-β3: a leading treatment for wounds, reportedly reducing skin scar in both animals and human; comparator”, in the series on incisional skin wounds [7], the “number of neutrophils counted in three sections” value came out at 53.8±17; the “macroscopic surface appearance of wound sites” value is on record as “still showed traces of wounds”; the “abnormal regions of dense, red, fine parallel fibers in wound gaps” value is listed as “largely absent”; the “gap width in-between the normal fibrils versus vehicle” value is listed as “significantly narrower”. Also, in the series on incisional skin wounds [7], the “collagen fibrils at wound sites under polarized light” value is reported as “some green fibers at the bottom of the wounds”. In addition, the “widths of the abnormal structured dermis regions versus vehicle” value with incisional skin wounds [7] (p<0.01-0.05) is on record as “significantly smaller”. Moreover, in the series with incisional skin wounds [7] (day 70, Masson trichrome), the “size of residual scar regions versus vehicle” value was “remarkably smaller”.
